Results published in the NIST ThermoML archive (doi:10.1021/je300938w).

What was measured:
[1] = wn = mass fraction of the nth substance listed; conditions: 101 kPa, Liquid; for viscosity: Concentric cylinders viscometry; for mass density: Vibrating tube method
[2] = refractive index (Na D-line) (dimensionless); wn = mass fraction of the nth substance listed; conditions: 101 kPa, Liquid, Standard Abbe refractometry

OCCNCCO [diethanolamine] + O
Conditions	mass density, [1] [kg/m3]	refractive index, [2]	viscosity, [1] [mPa·s]
298.15 K, w1 = 0.05	1003.46	1.3394	1.059
298.15 K, w1 = 0.1	1009.09	1.34654	1.27
298.15 K, w1 = 0.15	1014.94	1.35439	1.503
298.15 K, w1 = 0.2	1020.92	1.36184	1.893
298.15 K, w1 = 0.25	1027.11	1.37017	2.376
303.15 K, w1 = 0.05	1001.98	1.33875	0.9498
303.15 K, w1 = 0.1	1007.53	1.34585	1.129
303.15 K, w1 = 0.15	1013.27	1.35368	1.319
303.15 K, w1 = 0.2	1019.14	1.36108	1.649
303.15 K, w1 = 0.25	1025.19	1.36935	2.05
308.15 K, w1 = 0.05	1000.3	1.33801	0.8569
308.15 K, w1 = 0.1	1005.77	1.34511	1.013
308.15 K, w1 = 0.15	1011.42	1.35288	1.174
308.15 K, w1 = 0.2	1017.18	1.36028	1.455
308.15 K, w1 = 0.25	1023.11	1.36847	1.795
313.15 K, w1 = 0.05	998.43	1.3372	0.7792
313.15 K, w1 = 0.1	1003.83	1.34427	0.9142
313.15 K, w1 = 0.15	1009.39	1.35208	1.051
313.15 K, w1 = 0.2	1015.05	1.35939	1.295
313.15 K, w1 = 0.25	1020.89	1.36756	1.585
318.15 K, w1 = 0.05	996.373	1.33633	0.7137
318.15 K, w1 = 0.1	1001.71	1.3434	0.8307
318.15 K, w1 = 0.15	1007.2	1.35122	0.948
318.15 K, w1 = 0.2	1012.78	1.35862	1.161
318.15 K, w1 = 0.25	1018.51	1.36659	1.411
323.15 K, w1 = 0.05	994.141	1.33539	0.653
323.15 K, w1 = 0.1	999.439	1.34245	0.7593
323.15 K, w1 = 0.15	1004.85	1.35028	0.8599
323.15 K, w1 = 0.2	1010.35	1.35777	1.048
323.15 K, w1 = 0.25	1016	1.36557	1.266
328.15 K, w1 = 0.05	991.746	1.33442	0.6017
328.15 K, w1 = 0.1	996.992	1.34148	0.6969
328.15 K, w1 = 0.15	1002.36	1.34935	0.7836
328.15 K, w1 = 0.2	1007.78	1.3568	0.9519
328.15 K, w1 = 0.25	1013.36	1.36453	1.141
333.15 K, w1 = 0.05	989.2	1.3334	0.5596
333.15 K, w1 = 0.1	994.401	1.34044	0.643
333.15 K, w1 = 0.15	999.713	1.3485	0.7178
333.15 K, w1 = 0.2	1005.07	1.35582	0.8673
333.15 K, w1 = 0.25	1010.55	1.36354	1.037
338.15 K, w1 = 0.05	986.501	1.33234	0.5269
338.15 K, w1 = 0.1	991.668	1.33938	0.5932
338.15 K, w1 = 0.15	996.929	1.34755	0.6619
338.15 K, w1 = 0.2	1002.23	1.3547	0.799
338.15 K, w1 = 0.25	1007.44	1.36244	0.9543
343.15 K, w1 = 0.05	983.659	1.33122	0.5002
343.15 K, w1 = 0.1	988.796	1.3382	0.5534
343.15 K, w1 = 0.15	993.878	1.34633	0.6185
343.15 K, w1 = 0.2	999.25	1.35356	0.7459
343.15 K, w1 = 0.25	1004.41	1.3614	0.8922

CC(O)CN(CC(C)O)CC(C)O (stereo not given) [triisopropanolamine] + O
Conditions	mass density, [1] [kg/m3]	refractive index, [2]	viscosity, [1] [mPa·s]
298.15 K, w1 = 0.05	1000.88	1.34069	1.083
298.15 K, w1 = 0.1	1004.3	1.34815	1.36
298.15 K, w1 = 0.15	1007.92	1.35565	1.71
298.15 K, w1 = 0.2	1011.66	1.36317	2.173
298.15 K, w1 = 0.25	1015.04	1.37063	2.857
303.15 K, w1 = 0.05	999.387	1.34001	0.9842
303.15 K, w1 = 0.1	1002.67	1.34737	1.198
303.15 K, w1 = 0.15	1006.1	1.35487	1.486
303.15 K, w1 = 0.2	1009.61	1.36227	1.859
303.15 K, w1 = 0.25	1012.73	1.36979	2.396
308.15 K, w1 = 0.05	997.679	1.33922	0.8883
308.15 K, w1 = 0.1	1000.83	1.34656	1.068
308.15 K, w1 = 0.15	1004.08	1.35393	1.309
308.15 K, w1 = 0.2	1007.37	1.36133	1.612
308.15 K, w1 = 0.25	1010.26	1.36869	2.051
313.15 K, w1 = 0.05	995.768	1.33853	0.8034
313.15 K, w1 = 0.1	998.785	1.34572	0.9574
313.15 K, w1 = 0.15	1001.88	1.35309	1.159
313.15 K, w1 = 0.2	1004.97	1.36039	1.418
313.15 K, w1 = 0.25	1007.64	1.36764	1.774
318.15 K, w1 = 0.05	993.671	1.33769	0.7315
318.15 K, w1 = 0.1	996.561	1.34484	0.8658
318.15 K, w1 = 0.15	999.498	1.35209	1.038
318.15 K, w1 = 0.2	1002.41	1.35933	1.257
318.15 K, w1 = 0.25	1004.88	1.36653	1.553
323.15 K, w1 = 0.05	991.401	1.3368	0.6696
323.15 K, w1 = 0.1	994.168	1.34387	0.7874
323.15 K, w1 = 0.15	996.957	1.35104	0.9361
323.15 K, w1 = 0.2	999.698	1.35818	1.125
323.15 K, w1 = 0.25	1002	1.36532	1.373
328.15 K, w1 = 0.05	988.96	1.33565	0.6164
328.15 K, w1 = 0.1	991.613	1.34287	0.7208
328.15 K, w1 = 0.15	994.263	1.34999	0.8494
328.15 K, w1 = 0.2	996.847	1.35718	1.013
328.15 K, w1 = 0.25	998.98	1.36417	1.224
333.15 K, w1 = 0.05	986.362	1.33481	0.5719
333.15 K, w1 = 0.1	988.905	1.34176	0.6624
333.15 K, w1 = 0.15	991.422	1.34883	0.7754
333.15 K, w1 = 0.2	993.857	1.35587	0.9186
333.15 K, w1 = 0.25	995.844	1.36291	1.104
338.15 K, w1 = 0.05	983.585	1.3337	0.535
338.15 K, w1 = 0.1	985.961	1.34063	0.6134
338.15 K, w1 = 0.15	988.426	1.34762	0.7114
338.15 K, w1 = 0.2	990.739	1.35461	0.8381
338.15 K, w1 = 0.25	992.589	1.36154	0.9991
343.15 K, w1 = 0.05	980.297	1.33265	0.5064
343.15 K, w1 = 0.1	982.83	1.33943	0.57
343.15 K, w1 = 0.15	985.312	1.34641	0.6596
343.15 K, w1 = 0.2	987.395	1.35319	0.7694
343.15 K, w1 = 0.25	989.222	1.36012	0.9113
